# Molecular target: T1, C5aR (Homo sapiens, UniProt P21730)
# T1 construct: U937 cells are a monocytic cell line which express C5aR; host or cells: U937 cells (cAMP treated) or isolated neutrophils
# T1 sequence (P21730 1-350): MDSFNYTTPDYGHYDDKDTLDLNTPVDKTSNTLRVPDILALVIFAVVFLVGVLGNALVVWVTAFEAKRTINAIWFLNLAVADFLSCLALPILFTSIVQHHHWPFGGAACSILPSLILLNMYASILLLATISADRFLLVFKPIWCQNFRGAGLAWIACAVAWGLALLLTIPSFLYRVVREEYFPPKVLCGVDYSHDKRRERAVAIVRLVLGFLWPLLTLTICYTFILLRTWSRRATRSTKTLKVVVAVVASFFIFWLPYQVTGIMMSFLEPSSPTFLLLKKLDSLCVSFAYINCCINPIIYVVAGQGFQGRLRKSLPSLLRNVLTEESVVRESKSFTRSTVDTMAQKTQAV
# Test: chemotaxis assay (C5aR mediated migration)
# Type: cell-based
# Settings: migration of U937 or neutrophil cells toward C5a (0.03 nM), 1.5 hours at 37° C., read-out: Mig IC50
# Experimental: U937 cells are a monocytic cell line which express C5aR, and are available from ATCC (VA). […] Cells were grown under 5% CO2/95% air, 100% humidity at 37° C. and subcultured twice weekly at 1:6 (cells were cultured at a density range of 1×10^5 to 2×10^6 cells/mL) and harvested at 1×10^6 cells/mL. Prior to assay, cells are treated overnight with 0.5 mM of cyclic AMP (Sigma, Ohio) and washed once prior to use. cAMP treated U937 cells can be used in C5aR ligand binding and functional assays.
# Optionally, human or murine neutrophils can be used to assay for compound activity. Neutrophils may be isolated from fresh human blood using density separation and centrifugation. Briefly, whole blood is incubated with equal parts 3% dextran and allowed to separate for 45 minutes. After separation, the top layer is layered on top of 15 mls of Ficoll (15 mls of Ficoll for every 30 mls of blood suspension) and centrifuged for 30 minutes at 400×g with no brake. The pellet at the bottom of the tube is then isolated and resuspended into PharmLyse RBC Lysis Buffer (BD Biosciences, San Jose, Calif.) after which the sample is again centrifuged for 10 minutes at 400×g with brake. The remaining cell pellet is resuspended as appropriate and consists of isolated neutrophils.
# Optionally, compounds may be further assayed for their ability to inhibit chemotaxis in cells. Chemotaxis assays are performed using 5 μm pore polycarbonate, polyvinylpyrrolidone-coated filters in 96-well chemotaxis chambers (Neuroprobe; Gaithersburg, Md.) using chemotaxis buffer (Hank's balanced salt solution (HBSS) and 1% FBS). C5aR ligands (i.e., C5a, R&D Systems; Minneapolis, Minn.) are use to evaluate compound mediated inhibition of C5aR mediated migration. Other chemokines (i.e., SDF-1α; R&D Systems; Minneapolis, Minn.) are used as specificity controls. […] The chambers are incubated 1.5 hours at 37° C., and the number of cells in the lower chamber quantified either by direct cell counts in five high powered fields per well or by the CyQuant assay (Molecular Probes), a fluorescent dye method that measures nucleic acid content and microscopic observation.
row,SMILES,IC50
1,Cc1cccc(C)c1-n1nc2c(c1-c1ccc(Cl)c3[nH]ncc13)CN(c1ncc(C(F)(F)F)cn1)CC2 [Example 1.049],5 to 50 nM
2,Cc1cccc(C)c1-n1nc2c(c1-c1ccc(C)c3[nH]ccc13)CN(c1ccc(C(F)(F)F)cn1)CC2 [Example 1.130],5 to 50 nM
3,Cc1cccc(C)c1-n1nc2c(c1-c1c(F)cc(C)c3[nH]ccc13)CN(c1ncc(Cl)cc1F)CC2 [Example 1.091],5 to 50 nM
4,Cc1cccc(OCC(C)C)c1-n1nc2c(c1-c1ccc3[nH]ccc3c1)CN(c1nc(C(C)C)ns1)CC2 [Example 1.210],5 to 50 nM
5,Cc1cccc(OCC(C)C)c1-n1nc2c(c1-c1cccc3[nH]ccc13)CN(Cc1ccccc1C(F)(F)F)CC2 [Example 1.222],5 to 50 nM
6,Cc1cccc(C)c1-n1nc2c(c1-c1c(F)cc(C)c3[nH]ccc13)CN(c1ncc(C(F)(F)F)cc1F)CC2 [Example 1.095],< 5 nM
7,Cc1cccc(OCC(C)C)c1-n1nc2c(c1-c1ccc3[nH]ccc3c1)CN(C(C)c1ccccc1C(F)(F)F)CC2 (centres unmarked) [Example 1.233],< 5 nM
8,CCc1cccc(CC)c1-n1nc2c(c1-c1ccc3[nH]ccc3c1)CN(Cc1cc(Cl)ccc1Cl)CC2 [Example 1.227],< 5 nM
9,CCc1cccc(CC)c1-n1nc2c(c1-c1c(F)cnc3[nH]ccc13)CN(c1ncc(C(F)(F)F)cn1)CC2 [Example 1.014],5 to 50 nM
10,CCc1cccc(CC)c1-n1nc2c(c1-c1cc(F)c(F)c3[nH]ccc13)CN(c1ncc(C(F)(F)F)cc1F)CC2 [Example 1.120],5 to 50 nM
11,Cc1cccc(C)c1-n1nc2c(c1-c1c(F)cc(Cl)c3[nH]ccc13)CN(c1ncc(C(F)(F)F)cc1F)CC2 [Example 1.124],5 to 50 nM
12,CCc1cccc(CC)c1-n1nc2c(c1-c1c(F)cc(Cl)c3[nH]ccc13)CN(c1ncc(C(C)C)cn1)CC2 [Example 1.132],< 5 nM
13,Cc1cccc(C)c1-n1nc2c(c1-c1c(F)cc(C)c3[nH]ccc13)CN(c1ncc(C(F)(F)F)cn1)CC2 [Example 1.092],< 5 nM
14,CCc1cccc(CC)c1-n1nc2c(c1-c1ccc(Cl)c3[nH]ccc13)C(=O)N(c1ncc(C(F)(F)F)cn1)CC2 [Example 1.034],> 500 nM
15,Cc1cccc(OCC(C)C)c1-n1nc2c(c1-c1cccc3[nH]ccc13)CN(c1ncc(C(C)C)cc1F)CC2 [Example 1.198],5 to 50 nM
16,CCc1cccc(CC)c1-n1nc2c(c1-c1ccc(F)c3[nH]ccc13)CN(c1ncc(C3CC3)cc1Cl)CC2 [Example 1.176],< 5 nM
17,COc1cccc(C)c1-n1nc2c(c1-c1ccc3[nH]ccc3c1)CN(c1cc(C(C)(C)C)ccc1C)CC2 [Example 1.006],5 to 50 nM
18,CCc1cccc(CC)c1-n1nc2c(c1-c1c(F)cc(C)c3[nH]ccc13)CN(c1ncc(C(C)C)cn1)CC2 [Example 1.139],< 5 nM
19,Cc1cccc(C)c1-n1nc2c(c1-c1ccc(Cl)c3[nH]ccc13)CN(c1ncc(C(F)(F)F)cn1)CC2 [Example 1.060],< 5 nM
20,CCc1cccc(CC)c1-n1nc2c(c1-c1cc(F)c(OC)c3[nH]cc(F)c13)CN(c1ncc(C(F)(F)F)cn1)CC2 [Example 1.023],< 5 nM
21,CCc1cccc(CC)c1-n1nc2c(c1-c1ccc(Cl)c3[nH]c(C)nc13)CN(c1ncc(C(F)(F)F)cn1)CC2 [Example 1.038],5 to 50 nM
22,CCc1cccc(CC)c1-n1nc2c(c1-c1ccc(Cl)c3[nH]ccc13)CN(c1ccc(OC(F)(F)F)cn1)CC2 [Example 1.086],< 5 nM
23,CCc1cccc(CC)c1-n1nc2c(c1-c1ccc(C)c3[nH]ccc13)CN(c1ccc(C(F)(F)F)cn1)CC2 [Example 1.142],< 5 nM
24,CCc1cccc(CC)c1-n1nc2c(c1-c1c(F)cc(Cl)c3[nH]ccc13)CN(c1ccc(C(C)C)cn1)CC2 [Example 1.109],< 5 nM
25,CCc1cccc(CC)c1-n1nc2c(c1-c1ccc3[nH]cnc3c1Cl)CN(c1ncc(C(F)(F)F)cn1)CC2 [Example 1.009],50 to 500 nM
26,CCc1cccc(CC)c1-n1nc2c(c1-c1ccc(C)c3[nH]ccc13)CN(c1ncc(C(C)C)cc1F)CC2 [Example 1.136],< 5 nM
27,CCc1cccc(CC)c1-n1nc2c(c1-c1cc(F)c(Cl)c3[nH]ncc13)CN(c1ncc(C(F)(F)F)cn1)CC2 [Example 1.041],< 5 nM

row,SMILES,IC50
1,CCc1cccc(CC)c1-n1nc2c(c1-c1cc(Cl)c(C)c3[nH]ccc13)CN(c1ncc(C(F)(F)F)cn1)CC2 [Example 1.081],< 5 nM
2,Cc1cccc(OCC(C)C)c1-n1nc2c(c1-c1ccc3[nH]ccc3c1)CN(C(=O)OC(C)(C)C)CC2 [Example 1.018],5 to 50 nM
3,Cc1cccc(OCC(C)C)c1-n1nc2c(c1-c1ccc3[nH]ccc3c1)CN(c1ncc(C(F)(F)F)cc1F)CC2 [Example 1.232],< 5 nM
4,CCc1cccc(CC)c1-n1nc2c(c1-c1cc(F)c(OC)c3[nH]ccc13)CN(c1ncc(C(F)(F)F)cn1)CC2 [Example 1.059],< 5 nM
5,CCc1cccc(CC)c1-n1nc2c(c1-c1ccc3[nH]ccc3c1)CN(Cc1ccccc1C(F)(F)F)CC2 [Example 1.231],< 5 nM
6,CCc1cccc(CC)c1-n1nc2c(c1-c1ccc(F)c3[nH]cc(Cl)c13)CN(c1ncc(C(F)(F)F)cc1F)CC2 [Example 1.162],5 to 50 nM
7,CCc1cccc(CC)c1-n1nc2c(c1-c1cccc3[nH]ccc13)CN(c1ncc(C(F)(F)F)cn1)CC2 [Example 1.040],5 to 50 nM
8,CCc1cccc(CC)c1-n1nc2c(c1-c1ccc(C(=O)N(C)C)c3[nH]ccc13)CN(c1ncc(C(F)(F)F)cn1)CC2 [Example 1.047],50 to 500 nM
9,CCc1cccc(CC)c1-n1nc2c(c1-c1cc(F)c(CO)c3[nH]ccc13)CN(c1ncc(C(F)(F)F)cc1F)CC2 [Example 1.078],< 5 nM
10,Cc1cccc(OCC(C)C)c1-n1nc2c(c1-c1ccc3[nH]nc(C)c3c1)CN(c1ncc(C(F)(F)F)cc1F)CC2 [Example 1.215],> 500 nM
11,CCc1cccc(CC)c1-n1nc2c(c1-c1cc(Cl)c(C)c3[nH]ccc13)CN(c1ncc(C(F)(F)F)cc1F)CC2 [Example 1.080],< 5 nM
12,CCc1cccc(CC)c1-n1nc2c(c1-c1ccc3[nH]ccc3c1)CN(C1CCCC1)CC2 [Example 1.209],5 to 50 nM
13,Cc1cccc(C)c1-n1nc2c(c1-c1cc(F)c(C)c3[nH]ccc13)CN(c1ncc(C(F)(F)F)cn1)CC2 [Example 1.102],5 to 50 nM
14,CCc1cccc(CC)c1-n1nc2c(c1-c1ccc(Cl)c3[nH]ccc13)CN(c1ncc(C3CC3)cc1F)CC2 [Example 1.071],< 5 nM
15,Cc1cccc(C)c1-n1nc2c(c1-c1ncc(Cl)c3[nH]ccc13)CN(c1ncc(C3CC3)cn1)CC2 [Example 1.001],5 to 50 nM
16,CCc1cccc(CC)c1-n1nc2c(c1-c1ccc(Cl)c3[nH]cnc13)CN(c1ncc(C(F)(F)F)cn1)CC2 [Example 1.035],< 5 nM
17,CCc1cccc(CC)c1-n1nc2c(c1-c1cccc3[nH]c(C(F)(F)F)nc13)CN(c1ncc(C(F)(F)F)cn1)CC2 [Example 1.042],50 to 500 nM
18,CCc1cccc(CC)c1-n1nc2c(c1-c1c(F)cc(Cl)c3[nH]ccc13)CN(c1ncc(C(F)(F)F)cc1F)CC2 [Example 1.144],< 5 nM
19,Cc1cccc(OCC(C)C)c1-n1nc2c(c1-c1ccc3cc[nH]c3c1)CN(c1ncc(C(F)(F)F)cc1F)CC2 [Example 1.228],50 to 500 nM
20,CCc1cccc(CC)c1-n1nc2c(c1-c1ccc(Cl)c3[nH]ncc13)CN(c1ncc(C(F)(F)F)cc1F)CC2 [Example 1.119],5 to 50 nM
21,CCc1cccc(CC)c1-n1nc2c(c1-c1ccc(Cl)c3[nH]ccc13)CN(c1ncc(C(C)C)cn1)CC2 [Example 1.167],< 5 nM
22,CCc1cccc(CC)c1-n1nc2c(c1-c1ccc(C)c3[nH]ccc13)CN(c1ccc(C(C)C)cn1)CC2 [Example 1.127],< 5 nM
23,Cc1cccc(C)c1-n1nc2c(c1-c1cccc3[nH]ccc13)CN(c1ncc(Cl)cc1Cl)CC2 [Example 1.196],5 to 50 nM
24,CCc1cccc(CC)c1-n1nc2c(c1-c1ccc3[nH]c(C)nc3c1Cl)CN(c1ncc(C(F)(F)F)cn1)CC2 [Example 1.037],5 to 50 nM
25,CCc1cccc(CC)c1-n1nc2c(c1-c1ccc(Cl)c3[nH]ccc13)CN(c1ncc(C(C)C)cc1F)CC2 [Example 1.152],< 5 nM
26,CCc1cccc(CC)c1-n1nc2c(c1-c1ccc3[nH]ccc3c1)CN(C(C)c1ccccc1C(F)(F)F)CC2 (centres unmarked) [Example 1.202],5 to 50 nM

# Reference: patent publication US11384079B2, “6-5 fused rings as C5a inhibitors” (CHEMOCENTRYX, INC., priority 2017, dated 2022)
